The values that follow come from US10526316B2, “Quinoxaline and pyridopyrazine derivatives as PI3Kβ inhibitors” (Janssen Pharmaceutica NV, priority 2015, dated 2020).

As usually defined, the Kd is the equilibrium constant for the complex coming apart. In general, IC50 refers to the midpoint of a concentration-inhibition curve.

Experiment [1] has as its target T1, PI3Kβ (Homo sapiens, UniProt P42338).
T1 construct: purchased DiscoveRx Corporation, San Diego (contract service, KINOMEscan)
Nature of the experiment: Enzyme binding assay (KINOMEscan, DiscoveRx). The conditions noted are these: PIK3Cβ_h, read-out: Kd PIK3Cβ_h. As for the experimental part: (§1) Enzyme Binding Assays (KINOMEscan®)
Kinase enzyme binding affinities of compounds disclosed herein were determined using the KINOMEscan technology performed by DiscoveRx Corporation, San Diego, Calif., USA (www.kinomescan.com). Table A reports the obtained Kd values (nM), with the Kd being the inhibitor binding constant: […]

For experiment [2], the target named is T2, kinase enzymes (Homo sapiens, UniProt P42345).
T2 construct: purchased DiscoveRx Corporation, San Diego (contract service, KINOMEscan)
As to the kind of experiment: Enzyme binding assay (KINOMEscan, DiscoveRx), further kinases of Table A. The conditions noted are these: MTOR_h. As for the experimental part:
as §1
(§2) Kinase enzyme binding affinities of compounds disclosed herein were determined using the KINOMEscan technology performed by DiscoveRx Corporation, San Diego, Calif., USA (www.kinomescan.com).

The target in experiment [3] is T3, kinase enzymes (Homo sapiens, UniProt P42336).
T3 construct: purchased DiscoveRx Corporation, San Diego (contract service, KINOMEscan)
The experiment is described as above. As to conditions: PIK3Cα_h. As for the experimental part: as §1, §2

The target of experiment [4] is T4, kinase enzymes (Homo sapiens, UniProt P48736).
T4 construct: purchased DiscoveRx Corporation, San Diego (contract service, KINOMEscan)
The experiment is described as above. The conditions noted are these: PIK3Cγ_h. As for the experimental part: as §1, §2

The test system of experiment [5] is Akt phosphorylated at Ser473 in PC-3 cells. As to the kind of experiment: Cellular assay: phosphorylation of Akt at Ser473 in PC-3 cells (MSD ELISA). The class given is cell-based. As to conditions: PC-3 cells, 60 min compound incubation, MSD ELISA, read-out: IC50 pAkt_S473. As for the experimental part: (§3) Cellular activity of PI3KP inhibitors was determined by quantifying the phosphorylation of Akt in PC-3 cells. Akt phosphorylated at Ser473 and Thr308 were measured using an enzyme-linked immunosorbent assay (ELISA; Meso Scale Discovery (MSD), Gaithersburg. Md.) and specific primary antibodies from MSD.
(§4) On day 2, compound or DMSO (0.3%) was added and cells were further incubated for 60 min at 37° C. 5% CO2 in a total volume of 100 μl of medium.
(§5) The phosphoprotein assay was executed according to vendor instructions in the Phospho-Akt (Ser473) Assay Whole Cell Lysate Kit (MSD # K15100D-3) and the Phospho-Akt (Thr308) Assay Whole Cell Lysate Kit (MSD # K151DYD-3) using the lysis, blocking and wash buffer provided.
(§6) Briefly, at the end of the cell treatment period, media were removed by aspiration and adherent cells were lysed in 50 μl ice-cold lysis buffer. MSD plates are supplied pre-coated with capture antibodies for Phospho-Akt (Ser473 and Thr308). After blocking, lysates from tissue culture plates were added and plates were washed. Then, a solution containing the detection antibody (anti-total Akt conjugated with an electrochemiluminescent compound-MSD Sulfo-tag label) was added. The signals were detected using an MSD SECTOR Imager 6000 and are proportional to the phospho-Akt titres.
(§7) Data were processed. […] From these concentration-response curves, the IC50 values were calculated. Five concentrations were used for curve fitting.
In general terms: An ELISA detects its analyte on a solid surface through an enzyme-linked reagent.

Experiment [6] concerns the target T5, PI3Kδ (Homo sapiens, UniProt O00329).
T5 construct: purchased DiscoveRx Corporation, San Diego (contract service, KINOMEscan)
T5 sequence (O00329 1-1044): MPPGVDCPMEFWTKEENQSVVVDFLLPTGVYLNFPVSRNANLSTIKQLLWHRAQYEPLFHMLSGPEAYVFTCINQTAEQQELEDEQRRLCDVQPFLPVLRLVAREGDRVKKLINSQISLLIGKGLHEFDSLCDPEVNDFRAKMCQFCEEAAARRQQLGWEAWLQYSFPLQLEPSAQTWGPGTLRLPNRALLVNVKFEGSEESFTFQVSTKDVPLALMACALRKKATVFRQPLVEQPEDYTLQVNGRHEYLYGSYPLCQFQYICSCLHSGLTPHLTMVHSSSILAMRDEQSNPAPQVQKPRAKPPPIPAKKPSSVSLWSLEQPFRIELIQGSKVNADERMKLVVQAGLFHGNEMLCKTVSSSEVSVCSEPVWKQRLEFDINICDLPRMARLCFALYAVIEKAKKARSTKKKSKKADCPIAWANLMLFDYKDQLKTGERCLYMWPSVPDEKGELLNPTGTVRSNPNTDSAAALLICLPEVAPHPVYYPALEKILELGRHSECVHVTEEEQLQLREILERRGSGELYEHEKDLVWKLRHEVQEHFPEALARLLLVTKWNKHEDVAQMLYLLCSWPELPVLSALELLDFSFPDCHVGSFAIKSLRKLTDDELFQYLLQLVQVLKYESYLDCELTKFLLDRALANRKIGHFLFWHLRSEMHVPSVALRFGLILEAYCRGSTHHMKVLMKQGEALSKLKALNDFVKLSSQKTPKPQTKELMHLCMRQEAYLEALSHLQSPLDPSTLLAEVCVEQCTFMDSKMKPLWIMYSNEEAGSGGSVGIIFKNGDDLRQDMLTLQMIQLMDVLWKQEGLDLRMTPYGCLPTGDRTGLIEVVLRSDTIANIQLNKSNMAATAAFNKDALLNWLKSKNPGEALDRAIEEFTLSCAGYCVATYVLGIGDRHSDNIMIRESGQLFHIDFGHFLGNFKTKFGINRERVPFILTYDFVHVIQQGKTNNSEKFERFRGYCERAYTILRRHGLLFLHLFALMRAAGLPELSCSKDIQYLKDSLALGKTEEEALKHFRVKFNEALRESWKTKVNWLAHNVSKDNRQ
As to the kind of experiment: Enzyme binding assay (KINOMEscan, DiscoveRx). The conditions noted are these: PIK3Cδ_h. As for the experimental part: as §1, §2

For experiment [7], the system named is Akt phosphorylated at Thr308 in PC-3 cells. As to the kind of experiment: Cellular assay: phosphorylation of Akt at Thr308 in PC-3 cells (MSD ELISA). The class given is cell-based. As to conditions: PC-3 cells, 60 min compound incubation, MSD ELISA, read-out: IC50 pAkt_Thr308. As for the experimental part:
as §3, §4, §5, §6, §7

Where two headings read alike, the source gives them in different places.

T3 sequence (P42336 whole entry): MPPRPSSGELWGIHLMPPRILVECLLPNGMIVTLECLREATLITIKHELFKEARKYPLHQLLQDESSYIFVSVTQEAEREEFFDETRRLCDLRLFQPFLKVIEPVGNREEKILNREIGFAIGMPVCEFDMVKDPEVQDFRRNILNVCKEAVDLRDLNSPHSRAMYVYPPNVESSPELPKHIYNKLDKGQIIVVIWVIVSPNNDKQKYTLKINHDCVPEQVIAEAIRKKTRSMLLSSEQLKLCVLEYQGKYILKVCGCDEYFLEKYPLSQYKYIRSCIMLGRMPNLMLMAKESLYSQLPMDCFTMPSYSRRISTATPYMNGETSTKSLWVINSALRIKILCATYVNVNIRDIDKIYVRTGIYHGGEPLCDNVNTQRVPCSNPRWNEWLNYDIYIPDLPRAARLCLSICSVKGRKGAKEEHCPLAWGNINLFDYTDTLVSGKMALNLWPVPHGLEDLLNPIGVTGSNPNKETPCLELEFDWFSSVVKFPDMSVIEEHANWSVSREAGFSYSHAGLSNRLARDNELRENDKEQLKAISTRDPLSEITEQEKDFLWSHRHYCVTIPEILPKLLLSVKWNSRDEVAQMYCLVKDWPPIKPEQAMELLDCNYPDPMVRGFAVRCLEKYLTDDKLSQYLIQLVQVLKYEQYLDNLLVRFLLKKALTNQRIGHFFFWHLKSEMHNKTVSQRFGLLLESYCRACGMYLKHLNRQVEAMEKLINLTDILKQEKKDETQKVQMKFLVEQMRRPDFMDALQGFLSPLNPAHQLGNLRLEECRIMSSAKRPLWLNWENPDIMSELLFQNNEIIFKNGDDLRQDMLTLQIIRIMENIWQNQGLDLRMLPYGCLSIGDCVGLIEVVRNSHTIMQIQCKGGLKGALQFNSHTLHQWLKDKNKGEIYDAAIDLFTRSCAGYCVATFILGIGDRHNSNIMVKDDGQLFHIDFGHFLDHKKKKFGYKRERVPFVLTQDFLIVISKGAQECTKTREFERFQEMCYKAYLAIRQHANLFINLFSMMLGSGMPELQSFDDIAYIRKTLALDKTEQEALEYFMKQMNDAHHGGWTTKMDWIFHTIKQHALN
T1 sequence (P42338 whole entry): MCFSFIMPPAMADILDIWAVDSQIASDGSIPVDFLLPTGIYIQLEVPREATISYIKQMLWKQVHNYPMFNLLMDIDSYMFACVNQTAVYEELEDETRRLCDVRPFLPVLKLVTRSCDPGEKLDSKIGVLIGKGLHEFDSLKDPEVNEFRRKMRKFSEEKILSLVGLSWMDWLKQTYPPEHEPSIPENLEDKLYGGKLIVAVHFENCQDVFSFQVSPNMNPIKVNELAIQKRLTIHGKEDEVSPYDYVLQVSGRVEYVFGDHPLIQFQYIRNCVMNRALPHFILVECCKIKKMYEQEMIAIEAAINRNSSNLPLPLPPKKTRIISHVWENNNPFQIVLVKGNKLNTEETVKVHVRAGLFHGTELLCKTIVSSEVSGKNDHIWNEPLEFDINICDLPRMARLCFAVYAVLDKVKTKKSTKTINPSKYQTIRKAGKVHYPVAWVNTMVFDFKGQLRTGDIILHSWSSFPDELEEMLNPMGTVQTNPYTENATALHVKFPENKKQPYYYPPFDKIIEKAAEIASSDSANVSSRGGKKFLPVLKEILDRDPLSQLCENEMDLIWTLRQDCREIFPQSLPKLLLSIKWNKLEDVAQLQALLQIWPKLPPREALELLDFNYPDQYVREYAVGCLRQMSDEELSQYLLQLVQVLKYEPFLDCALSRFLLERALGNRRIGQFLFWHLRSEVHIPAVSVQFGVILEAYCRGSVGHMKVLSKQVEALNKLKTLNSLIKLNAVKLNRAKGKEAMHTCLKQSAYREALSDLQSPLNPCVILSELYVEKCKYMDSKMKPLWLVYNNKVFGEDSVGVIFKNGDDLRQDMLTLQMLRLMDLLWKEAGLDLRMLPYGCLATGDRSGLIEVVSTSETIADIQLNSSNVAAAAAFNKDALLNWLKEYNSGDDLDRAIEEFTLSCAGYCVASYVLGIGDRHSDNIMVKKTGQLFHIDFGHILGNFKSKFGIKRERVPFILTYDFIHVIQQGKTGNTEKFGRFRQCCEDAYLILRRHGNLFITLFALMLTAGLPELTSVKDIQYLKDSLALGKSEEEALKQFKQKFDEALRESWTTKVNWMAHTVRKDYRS
T4 sequence (P48736 whole entry): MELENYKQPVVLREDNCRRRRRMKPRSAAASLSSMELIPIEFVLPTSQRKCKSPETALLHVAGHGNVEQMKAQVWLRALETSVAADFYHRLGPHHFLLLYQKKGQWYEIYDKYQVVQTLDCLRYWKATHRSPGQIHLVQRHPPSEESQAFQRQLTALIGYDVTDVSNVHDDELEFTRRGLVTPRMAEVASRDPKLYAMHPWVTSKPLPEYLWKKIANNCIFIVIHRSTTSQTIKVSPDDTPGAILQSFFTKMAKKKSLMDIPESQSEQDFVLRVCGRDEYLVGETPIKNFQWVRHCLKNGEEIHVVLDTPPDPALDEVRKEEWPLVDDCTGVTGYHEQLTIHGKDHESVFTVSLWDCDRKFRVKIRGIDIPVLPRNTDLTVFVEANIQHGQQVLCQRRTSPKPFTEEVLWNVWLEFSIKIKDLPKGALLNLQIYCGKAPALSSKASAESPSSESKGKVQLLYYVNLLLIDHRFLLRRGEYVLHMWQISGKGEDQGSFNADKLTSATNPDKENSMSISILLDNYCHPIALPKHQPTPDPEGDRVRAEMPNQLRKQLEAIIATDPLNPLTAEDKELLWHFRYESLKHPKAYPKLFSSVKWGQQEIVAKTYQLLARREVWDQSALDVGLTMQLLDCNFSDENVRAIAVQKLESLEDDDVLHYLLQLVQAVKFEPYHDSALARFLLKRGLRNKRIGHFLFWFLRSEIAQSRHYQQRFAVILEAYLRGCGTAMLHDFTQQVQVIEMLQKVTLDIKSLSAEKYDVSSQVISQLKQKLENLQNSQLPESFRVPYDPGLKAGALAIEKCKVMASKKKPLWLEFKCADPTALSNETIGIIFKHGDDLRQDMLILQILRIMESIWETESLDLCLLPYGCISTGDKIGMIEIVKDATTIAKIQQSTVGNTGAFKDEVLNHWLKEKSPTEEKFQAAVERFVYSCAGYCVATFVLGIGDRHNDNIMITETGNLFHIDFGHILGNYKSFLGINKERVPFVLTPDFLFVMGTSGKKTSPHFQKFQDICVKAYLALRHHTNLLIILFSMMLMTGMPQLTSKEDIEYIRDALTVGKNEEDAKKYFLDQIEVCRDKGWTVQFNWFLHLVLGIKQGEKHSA

In the case of `CC(Nc1cc(F)cc(F)c1)c1cc(C(=O)N(C)CCN(C)C)cc2ncc(N3CCOCC3)nc12` (single isomer, unassigned) [Compound 182], the equilibrium dissociation constant (Kd) was 0.0003 µM in experiment [1]; greater than 30.2 µM in experiment [2]; 0.126 µM in experiment [3]; 0.912 µM in experiment [4]; 0.032 µM in experiment [6]. In addition, in experiment [5], the concentration for half-maximal inhibition (IC50) came to 0.001 µM.
For the molecule `CC(C)NCCNC(=O)c1cc(C(C)Oc2ccc(F)c(F)c2)c2nc(N3CCOCC3)cnc2c1` (single isomer, unassigned) [Compound 286b], the Kd in experiment [1] is 0.002 µM; in experiment [2], greater than 30.2 µM; in experiment [3], 6.03 µM; in experiment [4] it was 16.2 µM; in experiment [6], 0.355 µM. In experiment [7], the concentration for half-maximal inhibition (IC50) stood at 0.204 µM.
In the case of `CC(Nc1ccc(F)c(F)c1)c1cc(C(=O)N2CC[C@@H](O)C2)cc2ncc(N3CCOCC3)nc12` (single isomer, unassigned) [Compound 300b], the dissociation constant (Kd) in experiment [1] was 0.537 µM; in experiment [2], greater than 30.2 µM; in experiment [3], 24 µM; in experiment [4] it was greater than 30.2 µM; in experiment [6], 23.4 µM.
With `CC(C)NCCNC(=O)c1cc(C(C)Oc2cccc(F)c2)c2nc(N3CCOCC3)cnc2c1` (single isomer, unassigned) [Compound 314b], the Kd in experiment [1] is 0.002 µM; in experiment [2] it was greater than 30.2 µM; in experiment [3], 8.91 µM; in experiment [4] it was 16.6 µM; in experiment [6], 1 µM. In addition, in experiment [5], the half-inhibitory concentration (IC50) is 0.191 µM.
Take `CN(Cc1cc(F)cc(F)c1)c1cc(C(=O)N2CCNC(C(F)(F)F)C2)cc2ncc(N3CCOCC3)nc12` (single isomer, unassigned) [Compound 319a]: the Kd is 0.2 µM in experiment [1]; greater than 30.2 µM in experiment [2]; 9.12 µM in experiment [3]; greater than 30.2 µM in experiment [4]; 2.82 µM in experiment [6].
Turning to `CC(Oc1ccc(F)c(F)c1)c1cc(C(=O)N2CC[C@H](N(C)C)C2)cc2ncc(N3CCOCC3)nc12` (single isomer, unassigned) [Compound 363b], the Kd is 1.29 µM in experiment [1]; 27.5 µM in experiment [2]; 31.6 µM in experiment [3]; greater than 30.2 µM in experiment [4]; 17 µM in experiment [6].
On the same counts, the results for `CN[C@H]1CCN(C(=O)c2cc(C(C)Nc3ccc(F)c(F)c3)c3nc(N4CCOCC4)cnc3c2)C1` (single isomer, unassigned) [Compound 365b] are 0.251 µM, greater than 30.2 µM, 15.5 µM, 22.9 µM and 4.17 µM.
In the case of `CNCCN(C)C(=O)c1cc(C(C)Oc2cc(F)c(F)c(F)c2)c2nc(N3CCOCC3)cnc2c1` (single isomer, unassigned) [Compound 379b], the dissociation constant (Kd) in experiment [1] is 1.26 µM; in experiment [2], greater than 30.2 µM; in experiment [3], greater than 30.2 µM; in experiment [4], greater than 30.2 µM; in experiment [6], greater than 30.2 µM.
Turning to `CC(Nc1cc(F)c(F)c(F)c1)c1cc(C(=O)N2CCCN(C(C)C)CC2)cc2ncc(N3CCOCC3)nc12` (single isomer, unassigned) [Compound 388a], the Kd in experiment [1] is 0.933 µM; in experiment [2], greater than 30.2 µM; in experiment [3], greater than 30.2 µM; in experiment [4] it was greater than 30.2 µM; in experiment [6], greater than 30.2 µM.
Regarding `O=C(NCCO)c1cc(N2CCC2c2ccc(F)cc2)c2nc(N3CCOCC3)cnc2c1` (single isomer, unassigned) [Compound 391a], the equilibrium dissociation constant (Kd) in experiment [1] was 10.7 µM; in experiment [2], 17 µM; in experiment [3], greater than 30.2 µM; in experiment [4], greater than 30.2 µM; in experiment [6], greater than 30.2 µM.
In the case of `O=C(NCCO)c1cc(N2CCC2c2ccc(F)cc2)c2nc(N3CCOCC3)cnc2c1` (single isomer, unassigned) [Compound 391b], the Kd in experiment [1] is 19.5 µM; in experiment [2] it was greater than 30.2 µM; in experiment [3] it was greater than 30.2 µM; in experiment [4], greater than 30.2 µM; in experiment [6], greater than 30.2 µM.
As to `C[C@@H](Nc1cccc(F)c1)c1cc(C(=O)NCCO)cc2ncc(N3CCOCC3)nc12` [Compound 117], the half-inhibitory concentration (IC50) stood at 0.044 µM in experiment [7] (Homo sapiens, PC-3, 1 h) and 0.049 µM in experiment [5] (Homo sapiens, PC-3, 1 h).
In the case of `COC(=O)c1cc(C(C)Nc2cc(F)cc(Cl)c2)c2nc(N3CCOCC3)cnc2c1` (centres unmarked) [Compound 264], the results for the dissociation constant (Kd) in experiment [1] and in experiment [2] were 0.052 µM and greater than 30.2 µM, respectively. The 50% inhibitory concentration (IC50) in experiment [5] is greater than 0.513 µM.
Turning to `CN(Cc1cc(F)cc(F)c1)c1cc(C(=O)O)cc2ncc(N3CCOCC3)nc12` [Compound 291], the Kd in experiment [1] was 0.407 µM; in experiment [2] it was 10.2 µM; in experiment [3] it was 0.55 µM; in experiment [4] it was 0.513 µM; in experiment [6], 2.82 µM.
Consider `CN[C@H]1CCN(C(=O)c2cc(C(C)Nc3cc(F)c(F)c(F)c3)c3nc(N4CCOCC4)cnc3c2)C1` (some centres unmarked) [Compound 297], for which the dissociation constant Kd in experiment [1] was 0.0003 µM; in experiment [2], greater than 30.2 µM; in experiment [3] it was 1.86 µM; in experiment [4], 1.95 µM; in experiment [6], 0.11 µM. In addition, the half-inhibitory concentration (IC50) in experiment [7] (Homo sapiens, PC-3, 1 h) turned out to be 0.02 µM.
In the case of `CC(C)NCCNC(=O)c1cc(NCc2cc(F)cc(F)c2)c2nc(N3CCOCC3)cnc2c1` [Compound 342], the dissociation constant Kd in experiment [1] came to 0.009 µM; in experiment [2], 16.6 µM; in experiment [3], 3.8 µM; in experiment [4], 26.9 µM; in experiment [6] it was 1 µM.
Regarding `Cc1ccc(F)cc1CNc1cc(C(=O)NCCO)cc2ncc(N3CCOCC3)nc12` [Compound 343], the dissociation constant Kd was 0.022 µM in experiment [1], greater than 10 µM in experiment [2] and 2.19 µM in experiment [3]. Also, the IC50 in experiment [7] (Homo sapiens, PC-3, 1 h) is 0.178 µM; in experiment [5] (Homo sapiens, PC-3, 1 h), 0.389 µM.
For the molecule `O=C(c1cc(NCc2cc(F)cc(F)c2)c2nc(N3CCOCC3)cnc2c1)N1CCCNCC1` [Compound 351], the Kd in experiment [1] is 0.021 µM; in experiment [2] it was greater than 30.2 µM; in experiment [3], 2.51 µM; in experiment [4] it was 2.14 µM; in experiment [6], 1.7 µM.
In the case of `CNCCNC(=O)c1cc(C(C)Oc2ccc(Cl)c(F)c2)c2nc(N3CCOCC3)cnc2c1` (centres unmarked) [Compound 380a], the dissociation constant Kd in experiment [1] worked out at 1.05 µM; in experiment [2], 19.1 µM; in experiment [3], 9.12 µM; in experiment [6], 7.24 µM.
With `CC(C)NCCN(C)C(=O)c1cc(N(C)Cc2cc(F)cc(F)c2)c2nc(N3CCOCC3)cnc2c1` [Compound 390], the Kd in experiment [1] is 0.078 µM; in experiment [2], greater than 30.2 µM; in experiment [3], 16.6 µM; in experiment [4], 22.4 µM; in experiment [6], 3.24 µM.
